Test results taken from US20110287982A1, “CELL CULTURE DEVICE” (priority 2008, published 2011).

System: cardiac tissue generated from cardiomyocytes derived from human ESCs
Experiment: Electrophysiological recordings of cardiac tissue (CardioSpot) on porous multi-electrode arrays
Format: cell-based
Conditions: for repolarising potential (delay measured from the first signal): 30 nM E4031, control 140 ms
Protocol: Beating aggregates are maintained at room temperature in cryo-vials full of culture medium (Human cardiovascular progenitor cells develop from a KDR+embryonic-stem-cell-derived population. Yang L, et al., (2008). […] Culture Medium-StemPro 34 and 10 ng/mL VEGF CardioSpot made using primary or stem cell derived cardiomyocytes are placed onto the porous MEAs. Electrophysiological recordings were performed either through the supporting membrane or from under the membrane in order to get a direct contact of the tissues with recording electrodes. Control recording were performed using the culture medium as well a the solution used for reference molecules ([…], and lidocaine) Pharmacological experiments were carried out using reference compounds to characterise and validate the cardiac tissue generated from cardiomyocytes derived from human ESCs and engineered using the method of invention.

## CCN(CC)CC(=O)Nc1c(C)cccc1C [lidocaine]
30 uM lidocaine, after 6 minutes
  decrease of the amplitude of the electrophysiological signals: 50%
lidocaine, within few minutes
  amplitude of the first signal (predominantly dependent of sodium channel opening): dramatic decrease

## Cc1cccc(CCN2CCC(C(=O)c3ccc(NS(C)(=O)=O)cc3)CC2)n1 [E4031]
After 5 min
  repolarising potential (delay measured from the first signal): 155 ms
After 15 min
  repolarising potential (delay measured from the first signal): 173 ms
